According to the supplement of paper PMC10307832:

Tests used:
Experiment in all cases: relative viability (nuclei count vs DMSO), 5 days (fraction); higher = more cells survive
Kobe2602 + AZD7762 = compound: C1=CC(=CC=C1NC(=S)NNC2=C(C=C(C=C2[N+](=O)[O-])C(F)(F)F)[N+](=O)[O-])F [Kobe2602] + NC(=O)Nc1cc(-c2cccc(F)c2)sc1C(=O)N[C@H]1CCCNC1 [AZD7762] (partner 0.2 µM)
Outline: (§1)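 Each reported value is a median over duplicate plates. It expresses relative viability: treated-well nuclei count divided by vehicle-well nuclei count. Lung cancer cell lines in 1536-well plates were dosed by pin tool a day after seeding, alone with one drug or with a fixed anchor-drug dose plus five library-drug doses (not always all listed) in √10 steps, and nuclei were counted after 5 days.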

Kobe2602 + Vorinostat = compound: C1=CC(=CC=C1NC(=S)NNC2=C(C=C(C=C2[N+](=O)[O-])C(F)(F)F)[N+](=O)[O-])F [Kobe2602] + O=C(CCCCCCC(=O)Nc1ccccc1)NO [Vorinostat] (partner 1 µM)
Outline: as §1

Kobe2602 + Olaparib = compound: C1=CC(=CC=C1NC(=S)NNC2=C(C=C(C=C2[N+](=O)[O-])C(F)(F)F)[N+](=O)[O-])F [Kobe2602] + O=C(c1cc(Cc2n[nH]c(=O)c3ccccc23)ccc1F)N1CCN(C(=O)C2CC2)CC1 [Olaparib] (partner 8 µM)
Outline: as §1

[1] = compound: COc1cc2nccc(Oc3ccc(NC(=O)C4(C(=O)Nc5ccc(F)cc5)CC4)cc3)c2cc1OC [Cabozantinib] + O=C(CCCCCCC(=O)Nc1ccccc1)NO [Vorinostat] (partner 1 µM)
Outline: as §1

Cell Line | relative viability (Kobe2602 + AZD7762; first compound 0.2 µM) | relative viability (Kobe2602 + AZD7762; first compound 0.6325 µM) | relative viability (Kobe2602 + AZD7762; first compound 2 µM) | relative viability (Kobe2602 + AZD7762; first compound 6.325 µM) | relative viability (Kobe2602 + AZD7762; first compound 20 µM) | relative viability (Kobe2602 + Vorinostat; first compound 0.2 µM) | relative viability (Kobe2602 + Vorinostat; first compound 0.6325 µM) | relative viability (Kobe2602 + Vorinostat; first compound 2 µM) | relative viability (Kobe2602 + Vorinostat; first compound 6.325 µM) | relative viability (Kobe2602 + Vorinostat; first compound 20 µM) | relative viability (Kobe2602 + Olaparib; first compound 0.2 µM) | relative viability (Kobe2602 + Olaparib; first compound 0.6325 µM) | relative viability (Kobe2602 + Olaparib; first compound 2 µM) | relative viability (Kobe2602 + Olaparib; first compound 6.325 µM) | relative viability (Kobe2602 + Olaparib; first compound 20 µM) | relative viability ([1]; first compound 0.02 µM) | relative viability ([1]; first compound 0.06325 µM) | relative viability ([1]; first compound 0.2 µM) | relative viability ([1]; first compound 0.6325 µM) | relative viability ([1]; first compound 2 µM)
NCI-H1993 | 0.812 | 0.847 | 0.611 | 0.698 | 0.688 | 0.737 | 0.817 | 0.782 | 0.586 | 0.728 | 0.853 | 1.07 | 0.922 | 0.918 | 1.26 | 0.553 | 0.723 | 0.63 | 0.64 | 0.831
LK-2 | 0.464 | 0.385 | 0.427 | 0.302 | 0.553 | 0.295 | 0.334 | 0.376 | 0.305 | 0.551 | 0.619 | 0.766 | 0.875 | 0.596 | 0.796 | 0.226 | 0.178 | 0.385 | 0.309 | 0.348
NCI-H1915 | 0.711 | 0.729 | 0.7 | 0.71 | 0.682 | 0.523 | 0.549 | 0.478 | 0.534 | 0.557 | 0.275 | 0.251 | 0.246 | 0.269 | 0.307 | 0.525 | 0.548 | 0.511 | 0.522 | 0.473
RERF-LC-KJ | 0.883 | 0.973 | 1.02 | 0.881 | 0.894 | 0.679 | 0.69 | 0.671 | 0.665 | 0.509 | 0.936 | 0.957 | 0.9 | 0.525 | 0.282 | 0.65 | 0.768 | 0.666 | 0.801 | 0.75
NCI-H358 | 0.608 | 0.486 | 0.522 | 0.618 | 0.552 | 0.706 | 0.733 | 0.586 | 0.719 | 0.689 | 0.586 | 0.592 | 0.589 | 0.528 | 0.653 | 0.683 | 0.905 | 0.556 | 0.623 | 0.534
NCI-H2085 | 0.931 | 1.01 | 0.986 | 0.87 | 0.943 | 0.772 | 0.817 | 0.794 | 0.765 | 0.733 | 0.768 | 0.835 | 0.848 | 0.809 | 0.799 | 0.851 | 0.92 | 0.725 | 0.797 | 0.74
NCI-H2405 | 0.767 | 0.912 | 0.664 | 0.798 | 0.857 | 1.05 | 1.34 | 0.998 | 1.04 | 1.02 | 0.915 | 0.874 | 0.868 | 0.905 | 0.909 | 0.846 | 1.25 | 1.01 | 0.986 | 1.07
ABC-1 | 0.85 | 1 | 0.939 | 0.882 | 0.646 | 1.17 | 1.54 | 0.754 | 1.02 | 1.41 | 0.639 | 0.623 | 0.747 | 0.773 | 0.775 |  | 1.24 | 0.99 | 1.02 | 0.913
201T | 0.614 | 0.619 | 0.603 | 0.611 | 0.799 | 0.959 | 0.938 | 0.997 | 1.03 | 1.1 | 0.815 | 0.859 | 0.869 | 0.866 | 0.826 | 0.77 | 1.03 | 0.962 | 0.932 | 0.969
NCI-H1755 | 0.416 | 0.446 | 0.642 | 0.407 | 0.544 | 0.743 | 0.743 | 0.671 | 0.744 | 0.802 | 0.848 | 0.893 | 0.87 | 0.853 | 0.915 | 0.765 | 0.792 | 0.83 | 0.739 | 0.705
NCI-H650 | 0.843 | 1.14 | 0.924 | 0.971 | 1.06 | 0.466 | 0.411 | 0.421 | 0.499 | 0.434 | 0.4 | 0.443 | 0.37 | 0.403 | 0.401 | 0.412 | 0.489 | 0.458 | 0.721 | 0.414
NCI-H1651 | 0.442 | 0.447 | 0.462 | 0.41 | 0.429 | 0.601 | 0.448 | 0.583 | 0.551 | 0.751 | 0.186 | 0.165 | 0.189 | 0.19 | 0.193 | 0.511 | 0.709 | 0.533 | 0.571 | 0.622
NCI-H1437 | 1.17 | 1.14 | 1.11 | 1.05 | 1.02 | 0.855 | 0.739 | 0.78 | 0.791 | 0.625 | 0.666 | 0.632 | 0.6 | 0.562 | 0.475 | 0.931 | 0.984 | 0.925 | 0.809 | 0.715
NCI-H1975 | 0.724 | 0.791 | 0.658 | 0.645 | 0.662 | 0.68 | 0.74 | 0.626 | 0.678 | 0.701 | 0.763 | 0.78 | 0.766 | 0.722 | 0.755 | 0.754 | 0.833 | 0.773 | 0.728 | 0.651
BEN | 0.74 | 0.73 | 0.74 | 0.651 | 0.691 | 0.634 | 0.606 | 0.581 | 0.56 | 0.625 | 1.08 | 1.02 | 1 | 1.07 | 0.973 | 0.562 | 0.567 | 0.565 | 0.554 | 0.518
NCI-H460 | 0.64 | 0.756 | 0.681 | 0.652 | 0.56 |  | 0.702 | 0.705 | 0.724 | 0.68 | 0.427 | 0.416 | 0.455 | 0.423 | 0.43 | 0.893 | 0.818 | 0.68 | 0.635 | 0.741
